These results are taken from patent US4950605A, “FR-900493 substance, a process for its production and a pharmaceutical composition containing the same” (Fujisawa Pharmaceutical Co., Ltd., priority 1988, dated 1990).

The subject of data set [1] is Bacillus subtilis ATCC-6633. The experiment in a line: Antimicrobial activity, MIC on 1/2 Mueller-Hinton agar. Conditions: 37° C., 24 hours. Type of data set: cell-based. The protocol: (§1) Antimicrobial activities: (a) Test Method One loopful of an overnight culture (10^8 cells/ml) of each test bacteria in bouillon was streaked on 1/2 Mueller-Hinton agar containing the graded concentration of the FR-900493 substance and the minimal inbibitory concentration (MIC) was determined after incubation at 37° C. for 24 hours.

The subject of data set [2] is Staphylococcus aureus 1601-6. Described as above. The data set is classed as cell-based. Conditions: 37° C., 24 hours. The procedure: as §1
For data set [3], the system named is Staphylococcus aureus 209P JC-1. Described as above. Type of data set: cell-based. Conditions: 37° C., 24 hours. The protocol:
as §1

The subject of data set [4] is Staphylococcus aureus 1601-47. The experiment in a line: Protective efficacy in experimental infections in mice. The data set is classed as in vivo, ddY mouse (infected with Staphylococcus aureus 1601-47). The conditions noted are these: 30 mg/kg subcutaneous, one hour after intraperitoneal infection with 3×10^6 cells; male ddY mice 5 weeks; observed 2 days. The procedure:
Protective efficacy in experimental infections in mice: The in vivo activity of the FR-900493 substance against experimental infections due to Staphylococcus aureus 1601-47 was examined. One hour after the intraperitoneal injection of 3×10^6 cell of the test strain to each ddY mouse (male, 5 weeks age), the solution of the FR-900493 substance was administered subcutaneously.

The next data set in a line: Acute toxicity in mice. The data set is classed as in vivo. The conditions noted are these: intravenous; ddY mice, 4 weeks age, male. The procedure: The median lethal dose (LD50) of the FR-900493 substance in mice (ddY, 4 weeks age, male) by intravenous administration was >500 mg/kg.

≈ marks a conversion by molar mass, not a printed value.

With `CN(CCCN)[C@H](C(=O)O)[C@H](O[C@@H]1O[C@H](CN)[C@@H](O)[C@H]1O)[C@H]1O[C@@H](n2ccc(=O)[nH]c2=O)[C@H](O)[C@@H]1O` [FR-900493 substance], the “minimal inhibitory concentration (MIC)” value was found to be 3.13 µg/mL (≈ 6.02 µM) in data set [1], 6.25 µg/mL (≈ 12 µM) in data set [2] and 3.13 µg/mL (≈ 6.02 µM) in data set [3]. For the same molecule, the Survival in data set [4] was determined as 100%. Also, in “Acute toxicity in mice”, the “median lethal dose (LD50)” value is reported as over 500 mg/kg.
